Measured values taken from publication PMC11219871, “Epigenetic-based differentiation therapy for Acute Myeloid Leukemia” (Nature Communications, 2024).
Where “and” joins values, the source holds several entries; their conditions need not be identical. Equal values may be shown once.

How the values were obtained:
[1] = tested on: MOLM-13 i.v. in BALB/cA Rag2-/-γc-/- mice; assay: Intravenous xenograft model (survival, CD11b in blood, body weight); format: in vivo, mouse; conditions: for CD11b in blood samples: MOLM-13 i.v., 10 mg/kg i.p.; for CD11b (%): blood samples of mice engrafted intravenously with MOLM-13 cells, individual mice
HDAC2 = HDAC2 (Homo sapiens, UniProt Q92769); assay: HDAC enzymatic assay, fluorescence-labeled substrate; format: biochemical; conditions: for inhibition at 10 µM: source data of Fig. 1B
[2] = tested on: global 5-methylcytosine levels in HL-60, ML-2, MV4-11 and MOLM-13 cell lines; assay: Dot blot; format: cell-based, human; conditions: HL-60, 270 nM CM-444 or 300 nM CM-1758, 48 h
Protocol: DNA purity and concentration were measured using a NanoDrop spectrophotometer (Thermo Scientific). A 500 ng amount of genomic DNA was loaded onto a nitrocellulose membrane (Amersham Hybond_N+, RPN203B, GE Healthcare), pre-wetted in 6X SSC for 10 min, using the Bio-Dot microfiltration apparatus (Cat No 170-6545, Bio-Rad) following the manufacturer’s instructions. Next, the membrane was incubated with 2X SSC for 5 min and cross-linked for 2 h at 80 °C. The membrane, after being blocked with Tropix I-block blocking reagent (Cat No AI300, Tropix) in PBS with 0.1% Tween 20 and 0.02 NaN3, was incubated with the primary antibody against 5-methylcytosine (monoclonal antibody 5-methylcytidine, Cat No BI-MECY-1000, Eurogentec) diluted 1:4000 o/n at 4 °C and then with alkaline phosphatase-conjugated secondary antibody. […] To ensure equal loading of total DNA on the membrane, the same blot was stained with 0.02% methylene blue in 0.3 M sodium acetate (pH 5.2).

[3] = tested on: HL-60 cells in BALB/cA Rag2-/-γc-/- mice; assay: Subcutaneous implant of in vitro pretreated cells, tumor volume; format: in vivo, mouse; set-up: key to Tumor volume: mm^3; V = D×d²/2 (D longest, d shortest diameter); conditions: for tumor growth: HL-60 cells pretreated in vitro 4 days, s.c.; for Tumor volume: HL-60 cells pretreated in vitro for 96 hours with 270 nM of CM-444 or 300 nM of CM-1758, injected subcutaneously, individual mice
Protocol: (§1) The human AML HL-60 and ML-2 cell lines were first pretreated in vitro daily with 270 and 260 nM of CM-444 or 300 and 210 nM of CM-1758, respectively, for 4 days. Prior to injection in mice, the cell differentiation induction by CM-444 and CM-1758 compounds was verified by measuring CD11b by flow cytometry, as described earlier. Then, 5 × 10^6 cells of cells, pretreated with CM-444, […], or vehicle (80% saline solution, 10% DMSO and 10% Tween 20) and diluted in 100 µL of saline solution, were implanted subcutaneously into the flank of female BALB/cA Rag2^−/−γc^−/− mice between 6 and 8 weeks of age (n = 8). Tumor size was analyzed every 2–3 days using the following method: […], where D and d corresponded to the longest and shortest diameter, respectively. The maximal tumor size/burden permitted by the Animal Care and Ethics Committee of the University of Navarra is 2000 mm^3. In some cases, this limit was reached on the last day of measurement and the mice were immediately euthanized.

[4] = tested on: ML-2 cells in BALB/cA Rag2-/-γc-/- mice; assay: as above; format: in vivo, mouse; set-up: key to Tumor volume: mm^3; V = D×d²/2 (D longest, d shortest diameter); conditions: for tumor growth: ML-2 cells pretreated in vitro 4 days, s.c.; for Tumor volume: ML-2 cells pretreated in vitro for 96 hours, injected subcutaneously, individual mice (Fig 3A)
Protocol: as §1

cytochrome P450 2C9 = target: T1, cytochrome P450 2C9 (Homo sapiens, UniProt P11712); assay: CYP inhibition in human liver microsomes; format: in vitro ADME; conditions: 10 µM
T1 construct: Corning Cat # 452117); tissue Corning 452117; host or cells: human liver microsomes
Protocol: (§2) This study was conducted at Wuxi (http://www.wuxi.com/). The inhibitory effects of CM-444 and CM-1758 on five human cytochrome P450s (1A2, 2C9, 2C19, 2D6 and 3A4) were evaluated in human liver microsomes. Test compounds (10 µM final concentration) or control compounds (α-naphthoflavone, sulfaphenazole, (+)-N-3-benzylnirvanol, quinidine, ketoconazole; 3-µM final concentration), and the corresponding substrates for each P450 isoform (1A2: phenacetin, 10-µM final concentration; 2C9: diclofenac, 5-µM final concentration; 2C19: S-mephenytoin, 30-µM final concentration, 2D6: dextromethorphan, 5-µM final concentration; 3A4: midazolam, 2-µM final concentration) were incubated with human liver microsomes (0.2-mg/mL final concentration; Corning Cat # 452117) and NADPH cofactor (1-mM final concentration, Chem-impex Cat # 00616) for 10 min at 37 °C. The reaction was terminated by adding 400 µL of cold stop solution (200 ng/mL tolbutamide and labetalol in acetonitrile), and the samples were centrifuged at 1520 g for 20 min. Next, 200-μL aliquots of supernatants were diluted with 100 μL of ultra-pure water and shaken for 10 min. The samples were analyzed by LC-MS/MS using an analyte/internal standard peak area ratio. Test compounds and positive controls were tested in duplicate. The percentage of inhibition was calculated as the ratio of substrate metabolite detected in treated and non-treated wells.

cytochrome P450 3A4 = target: T2, cytochrome P450 3A4 (Homo sapiens, UniProt P08684); assay: CYP inhibition in human liver microsomes; format: in vitro ADME; conditions: 10 µM
T2 construct: Corning Cat # 452117); tissue Corning 452117; host or cells: human liver microsomes
Protocol: as §2

cytochrome P450 1A2 = target: T3, cytochrome P450 1A2 (Homo sapiens, UniProt P05177); assay: CYP inhibition in human liver microsomes; format: in vitro ADME; conditions: 10 µM
T3 construct: Corning Cat # 452117); tissue Corning 452117; host or cells: human liver microsomes
Protocol: as §2

cytochrome P450 2D6 = target: T4, cytochrome P450 2D6 (Homo sapiens, UniProt P10635); assay: CYP inhibition in human liver microsomes; format: in vitro ADME; conditions: 10 µM
T4 construct: Corning Cat # 452117); tissue Corning 452117; host or cells: human liver microsomes
Protocol: as §2

cytochrome P450 2C19 = target: T5, cytochrome P450 2C19 (Homo sapiens, UniProt P33261); assay: CYP inhibition in human liver microsomes; format: in vitro ADME; conditions: 10 µM
T5 construct: Corning Cat # 452117); tissue Corning 452117; host or cells: human liver microsomes
Protocol: as §2

Cytotoxicity (LC50) = format: cell-based; conditions: human, THLE-2 cells (immortalized liver cell line, ATCC CRL-2706)

Chain of HDAC2 (Q92769 whole entry): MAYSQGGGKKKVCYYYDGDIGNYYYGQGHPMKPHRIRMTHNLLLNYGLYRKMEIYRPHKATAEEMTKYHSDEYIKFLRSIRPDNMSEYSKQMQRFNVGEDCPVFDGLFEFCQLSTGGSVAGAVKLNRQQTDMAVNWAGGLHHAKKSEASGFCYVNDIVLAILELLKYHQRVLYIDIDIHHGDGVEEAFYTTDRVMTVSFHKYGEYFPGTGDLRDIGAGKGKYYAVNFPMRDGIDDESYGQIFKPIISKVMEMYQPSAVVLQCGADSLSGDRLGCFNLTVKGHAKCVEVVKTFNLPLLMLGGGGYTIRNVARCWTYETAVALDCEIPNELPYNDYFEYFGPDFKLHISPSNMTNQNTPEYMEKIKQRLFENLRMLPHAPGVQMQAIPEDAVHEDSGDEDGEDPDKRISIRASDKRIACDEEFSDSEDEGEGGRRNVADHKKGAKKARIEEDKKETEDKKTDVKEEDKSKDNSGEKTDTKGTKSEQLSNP
T1 sequence (P11712 whole entry): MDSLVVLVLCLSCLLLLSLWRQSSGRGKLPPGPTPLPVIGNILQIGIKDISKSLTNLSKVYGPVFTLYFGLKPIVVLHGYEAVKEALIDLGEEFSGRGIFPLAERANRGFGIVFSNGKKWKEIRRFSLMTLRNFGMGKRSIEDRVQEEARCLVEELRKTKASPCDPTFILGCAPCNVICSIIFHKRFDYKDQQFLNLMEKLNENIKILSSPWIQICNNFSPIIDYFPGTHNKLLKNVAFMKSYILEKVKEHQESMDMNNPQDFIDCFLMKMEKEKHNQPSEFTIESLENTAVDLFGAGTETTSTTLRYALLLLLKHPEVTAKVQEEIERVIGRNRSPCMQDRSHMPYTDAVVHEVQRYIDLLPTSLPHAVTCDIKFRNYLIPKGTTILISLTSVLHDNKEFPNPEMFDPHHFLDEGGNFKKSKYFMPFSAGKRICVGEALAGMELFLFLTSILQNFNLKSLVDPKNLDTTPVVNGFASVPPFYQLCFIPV
T4 sequence (P10635 whole entry): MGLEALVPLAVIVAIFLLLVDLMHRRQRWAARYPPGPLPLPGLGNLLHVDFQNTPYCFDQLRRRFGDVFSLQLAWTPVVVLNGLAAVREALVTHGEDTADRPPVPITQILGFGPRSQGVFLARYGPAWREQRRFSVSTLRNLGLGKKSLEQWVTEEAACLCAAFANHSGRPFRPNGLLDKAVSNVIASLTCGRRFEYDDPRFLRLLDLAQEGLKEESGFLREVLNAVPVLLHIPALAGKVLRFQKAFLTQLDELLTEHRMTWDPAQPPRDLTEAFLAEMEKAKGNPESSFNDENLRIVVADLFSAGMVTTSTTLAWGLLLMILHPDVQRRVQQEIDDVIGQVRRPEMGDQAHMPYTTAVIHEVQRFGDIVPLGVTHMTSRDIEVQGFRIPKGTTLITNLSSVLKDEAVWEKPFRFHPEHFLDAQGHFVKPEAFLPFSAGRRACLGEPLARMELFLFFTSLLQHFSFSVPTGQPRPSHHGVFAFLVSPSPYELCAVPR
T5 sequence (P33261 whole entry): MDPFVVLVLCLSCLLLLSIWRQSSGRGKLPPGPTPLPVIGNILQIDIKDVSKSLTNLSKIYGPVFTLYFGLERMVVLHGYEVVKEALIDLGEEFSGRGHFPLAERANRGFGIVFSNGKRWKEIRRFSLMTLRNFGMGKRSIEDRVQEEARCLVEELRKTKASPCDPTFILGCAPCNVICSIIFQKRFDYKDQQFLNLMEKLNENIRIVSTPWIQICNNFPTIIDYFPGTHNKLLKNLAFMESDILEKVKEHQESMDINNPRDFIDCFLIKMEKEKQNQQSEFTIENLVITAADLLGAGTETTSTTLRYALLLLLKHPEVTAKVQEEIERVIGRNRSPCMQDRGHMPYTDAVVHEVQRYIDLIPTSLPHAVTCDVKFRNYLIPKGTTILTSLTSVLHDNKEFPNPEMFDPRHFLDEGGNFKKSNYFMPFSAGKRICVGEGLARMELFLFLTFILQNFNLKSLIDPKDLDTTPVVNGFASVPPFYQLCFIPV
T2 sequence (P08684 whole entry): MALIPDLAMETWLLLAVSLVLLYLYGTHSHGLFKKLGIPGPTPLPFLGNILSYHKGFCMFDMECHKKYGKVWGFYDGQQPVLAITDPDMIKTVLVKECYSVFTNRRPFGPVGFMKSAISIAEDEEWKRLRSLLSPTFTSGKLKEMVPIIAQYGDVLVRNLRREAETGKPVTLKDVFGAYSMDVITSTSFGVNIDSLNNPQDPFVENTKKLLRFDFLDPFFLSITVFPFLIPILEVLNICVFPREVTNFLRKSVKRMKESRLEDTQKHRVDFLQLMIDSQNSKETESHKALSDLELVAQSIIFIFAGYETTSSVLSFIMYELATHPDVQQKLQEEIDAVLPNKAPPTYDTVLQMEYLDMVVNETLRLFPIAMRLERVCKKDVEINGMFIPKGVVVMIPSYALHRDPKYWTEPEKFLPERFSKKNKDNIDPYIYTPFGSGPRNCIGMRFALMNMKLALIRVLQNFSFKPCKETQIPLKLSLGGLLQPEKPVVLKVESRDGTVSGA
T3 sequence (P05177 whole entry): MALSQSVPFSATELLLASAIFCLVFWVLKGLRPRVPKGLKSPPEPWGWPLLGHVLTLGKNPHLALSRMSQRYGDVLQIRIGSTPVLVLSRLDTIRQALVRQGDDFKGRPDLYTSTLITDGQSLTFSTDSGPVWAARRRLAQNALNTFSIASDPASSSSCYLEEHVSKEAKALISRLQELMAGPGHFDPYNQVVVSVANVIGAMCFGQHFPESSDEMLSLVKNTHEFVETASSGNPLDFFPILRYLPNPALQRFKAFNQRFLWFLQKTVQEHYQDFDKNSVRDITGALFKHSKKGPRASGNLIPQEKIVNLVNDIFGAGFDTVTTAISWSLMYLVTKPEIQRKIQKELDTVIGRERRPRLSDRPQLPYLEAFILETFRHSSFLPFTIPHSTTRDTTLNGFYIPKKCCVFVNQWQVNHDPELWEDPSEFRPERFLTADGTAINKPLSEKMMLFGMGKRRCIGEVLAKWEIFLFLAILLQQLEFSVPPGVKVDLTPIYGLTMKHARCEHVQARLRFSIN

Structure (SMILES) | CD11b in blood samples [1] | CD11b (%) [1] | IC50 (HDAC2) | inhibition at 10 µM (HDAC2) | 5mC level (dot blot) [2] | tumor growth [3] | Tumor volume ([3]; day 0, in mm³) | Tumor volume ([3]; day 6) | Tumor volume ([3]; day 10, in mm³) | Tumor volume ([3]; day 13, in mm³) | tumor growth [4] | Tumor volume ([4]; day 0, in mm³) | Tumor volume ([4]; day 5, in mm³) | Tumor volume ([4]; day 7, in mm³) | Tumor volume ([4]; day 9) | Tumor volume ([4]; day 14, in mm³) | Tumor volume ([4]; day 16, in mm³) | P450S Inhibition (2C9) (cytochrome P450 2C9) | P450S Inhibition (3A4) (cytochrome P450 3A4) | P450S Inhibition (1A2) (cytochrome P450 1A2) | also measured
COc1cc2nc(-c3ccc(C)o3)cc(NCC3CCN(c4ncc(C(=O)NO)cn4)CC3)c2cc1OC [CM-444, 2-[4-[[[6,7-dimethoxy-2-(5-methyl-2-furyl)-4-quinolyl]amino]methyl]-1-piperidyl]pyrimidine-5-carbohydroxamic acid] | significant induction of CD11b | 49.5% and 13.9% and 12.3% and 14% and 28.6% and 15.1% and 19.3% and 15% and 42.6% and 31.9% and 18% and 12.6% | 51 nM | 90% | no changes | tumor growth was significantly slower | 0 | 0 (3×) and 15.188 and 103.406 and 17.053 | 208.487 and 290.654 and 187.094 and 596.573 and 195.686 and 84.5628 and 14.1488 | 1082.75 and 1016.65 and 1040.97 and 728.909 and 903.701 and 1085.29 | tumor growth was significantly slower | 0 | 0 | 0 | 0 (5×) and 2.103 and 2.907 and 1.967 | 56.0772 and 79.1967 and 185.795 and 76.3392 and 203.44 and 147.179 and 18.725 and 23.4078 | 136.524 and 233.533 and 382.095 and 345.104 and 527.015 and 508.257 and 54.687 and 46.2692 | 0% | 50.8% | 58.8% | Tumor volume ([3]; day 8, in mm³): 74.6826 and 76.624 and 60.9783 and 227.696 and 55.1928 and 10.6605 and 0; Tumor volume ([4]; day 12): 0 (3×) and 15.5058 and 44.8074 and 14.292 and 43.7037 and 21.7346; P450S Inhibition (2D6) (cytochrome P450 2D6): 10.8%; P450S Inhibition (2C19) (cytochrome P450 2C19): 5.6%; CC50 (Cytotoxicity (LC50)): 794 nM
COc1cc2nc(-c3cc(C)oc3C)cc(NCC3CCN(c4ncc(C(=O)NO)cn4)CC3)c2cc1OC [CM-1758, 2-[4-[[[2-(2,5-dimethyl-3-furyl)-6,7-dimethoxy-4-quinolyl]amino]methyl] -1-piperidyl]pyrimidine-5-carbohydroxamic acid] | significant induction of CD11b | 43.5% and 62.1% and 13.7% and 9.45% and 29.6% and 36.3% and 8.98% and 17.9% and 35.4% and 52.9% and 49.9% | 31 nM | 90% | no changes | tumor growth was significantly slower | 0 | 14.6888 and 24.2273 and 0 (4×) and 45.3546 | 433.416 and 271.101 and 281.205 and 32.0688 and 347.688 and 41.4834 and 382.357 | 1283.62 and 996.2 and 1210.81 and 1389.27 and 1272.73 and 1452.46 and 1063.15 | tumor growth was significantly slower | 0 | 0 | 0 | 1.83 and 2.997 and 3.143 and 0 (4×) and 2.907 | 153.626 and 316.908 and 512.533 and 39.4763 and 33.8029 and 280.96 and 104.197 and 181.612 | 325.692 and 736.294 and 1010.72 and 175.673 and 76.8746 and 574.138 and 425.416 and 598.506 | 12.2% | 46.9% | 55.4% | Tumor volume ([3]; day 8): 103.082 and 62.3824 and 0 (2×) and 92.0448 and 53.4746 and 85.0123; Tumor volume ([4]; day 12, in mm³): 16.9153 and 75.9412 and 211.561 and 0 and 9.058 and 82.0914 and 8.878 and 27.0425; P450S Inhibition (2D6) (cytochrome P450 2D6): 13.1%; P450S Inhibition (2C19) (cytochrome P450 2C19): 23.7%; CC50 (Cytotoxicity (LC50)): 779 nM
